Columns and labels:
[1] = system: rat alveolar macrophage cell line NR 8383; assay: CEREZYME enzyme uptake by rat alveolar macrophage cells in vitro; format: cell-based; conditions: after two days; separate experiment
Description: (§1) The rat alveolar macrophage cell line NR 8383 (ATCC# CRL-2192) were cultured in Kaighn's modified F12K nutrient mixture (Gibco# 21127-002) with 2 mM L-glutamine (Gibco# 25030-081), 15% heat-inactivated fetal bovine serum (FBS) (Gibco# 16000-044) and 1× penicillin/streptomycin. Most of the cells were attached to the dish, with some in suspension. Hep3B cells were grown in MEM-eagle (Gibco# 11960-044) with Earles salts and 10% FBS, 1× non-essential amino acid (NEAA), 1× sodium pyruvate and 1× penicillin/streptomycin. Human liver sinusoidal endothelial cells (LSECS) (ACBRI#-566) were purchased from Applied Cell Biology Research Institute through Cell Systems, Inc. Cells were cultured in CS-C Media (CSC# 4Z0-500) with additional 10% FBS. During passage, the culture dishes or flasks were treated with attachment factor solution (CSC# 4Z0-210). Prior to seeding, the purity of the LSECs was confirmed by immunostaining with anti-VOA Willebrand factor (data not shown).
For dexamethasone or other drug treatment, the cells were incubated with the drugs under various conditions as indicated in each figure legend (FIGS. 1A-F). […]
(§2) The lysates were used for glucocerebrosidase assay in duplicate or triplicate with 4-MU-beta-glucoside (Sigma# M-3633) as substrate and with CEREZYME® enzyme as standard. Proteins were quantified using a MicroBCA protein assay kit (Pierce) with BSA as standard. […]

[2] = system: Hep3B cells; assay: CEREZYME enzyme uptake by hepatocytes (Hep3B) in vitro; format: cell-based; conditions: dexamethasone treatment; result in words
Description: as §1, with “shown). […]” for “shown).”
as §2

[3] = system: spleen and bone marrow tissues; assay: Glucocerebrosidase activity in rat spleen and bone marrow after CEREZYME enzyme injection; format: in vivo, Fisher rats; conditions: rats, 100 μg dexamethasone, 2.5 U CEREZYME; equals level of non-treated rats given 10 U
Description: To assess the effect of dexamethasone treatment on CEREZYME® enzyme uptake by liver macrophage (Kupffer cells) in vivo, Fisher rats (female, ˜130 g) were divided into four groups (n=3). The first and second groups of rats only received vehicle PBS without dexamethasone, and the third and fourth groups were treated with water-soluble dexamethasone sodium phosphate (American Reagent Laboratories Inc.) at 10 μg and 100 μg (diluted into 200 μl PBS) per rat through intraperitoneal injection. Four doses of dexamethasone were given over two consecutive days, one dose in early morning and one dose in late afternoon on each day. On the third day, CEREZYME® enzyme at 2.5 U per rat (˜18 U/kg) diluted in PBS was administrated into the second, third and fourth groups of rats through tail vein bolus injection. The first group was used as negative control.
Direct measurement of glucocerebrosidase activity in spleen, liver and bone marrow tissues after CEREZYME® enzyme uptake was also assessed in another set of experiments. Five groups of rats were used (n=3). The first four groups were treated in the same manner as described above, whereas the fifth group of rats was not treated with dexamethasone but received 10 U of CEREZYME® enzyme per rat and used as positive controls. […] The supernatants were saved and measured for glucocerebrosidase activity and normalized to protein content as described above.

[4] = system: spleen macrophages; assay: CEREZYME enzyme uptake in vivo by isolated rat spleen macrophages; design: species or system Fisher rats
Description: Quantitative analysis of the dexamethasone effects on CEREZYME® enzyme uptake in vivo was performed on macrophage cells isolated from spleens through the attachment method (Gessani S, 2000 #35). Fisher rats (female, 180-200 g) were used and divided into four groups. After dexamethasone (50 μg/rat) pretreatment and CEREZYME® enzyme (or unmodified glucocerebrosidase) injection, rat spleens were excised and cut into small pieces. The total spleen cells were released by pressing between two frosted cover slides, followed by washing with 15 ml of RPMI media containing 10% heat-inactivated FBS. Red blood cells were lysed with red blood cell lysis buffer (Sigma). The rest of the splenocytes were seeded in 150-mm tissue culture dishes and incubated at 37° C. for 1 hour for the attachment isolation of macrophages. 15 ml of media were added to five 150-mm tissue culture dishes as blanks for nonspecific protein binding. After removing the cells in suspension and washing the attached cells 5 times with PBS, the attached cells were lysed in KP buffer by scrapping and assayed for glucocerebrosidase activity and protein content. The average of protein content of the blank dishes was subtracted from each cell sample. For dose response of CEREZYME® enzyme to dexamethasone, rats pretreated with dexamethasone were injected with different doses of CEREZYME® enzyme as for the control groups without dexamethasone pretreatment. Attached cells (>90% spleen macrophages) were isolated for glucocerebrosidase assay as described above. […] The absolute enzyme activity, however, was ˜220% of the control without dexamethasone treatment (FIG. 4A). The dexamethasone effects were also tested at other CEREZYME® enzyme doses at 7 U/kg and 72 U/kg respectively, which are either below or above the saturation levels (Mistry, 1996 #10). As is shown in FIG. 4B, at both doses, the dexamethasone effects were about the same and increased CEREZYME® enzyme uptake to a similar level as with 18 U/kg of CEREZYME® enzyme, namely, about 3-fold increase after dosage correction. The absolute CEREZYME® enzyme activity was ˜250% of the control sample at 72 U/kg.

[5] = system: Hep 3B cells; assay: Alpha-galactosidase uptake by Hep3B cells (hepatocytes) in vitro; format: cell-based; conditions: separate experiment, FIG. 9
Description: Muscles are the major target tissues for enzyme replacement therapy of Pompe disease due to the lack of acid alpha-glucosidase. To determine if the M6P/IGF-II receptor-mediated lysosomal enzyme uptake pathway can be augmented by insulin/glucose, the effects of insulin/glucose were analyzed on induced muscle cells (myotubes) in vitro. L6 myoblasts (or induced myotubes) and Hep3B cells were cultured in 6-well dishes. Rat L6 myoblasts (ATCC# CRL-1458) were cultured at 37° C. under 5% CO2 in VitaCell DMEM media (ATCC# 30-2002) with 4 mM L-glutamine, 10% fetal bovine serum (Gibco #16000-044) and 1× penicillin/streptomycin. Once confluent, cells were switched to VitaCell DMEM plus 2% horse sera (Gibco# 26050-088) and 1× penicillin/streptomycin. Media were changed every 3 days and at day 9-10, myotubes could be observed as multinuclear tubes. About 30-40% of the myoblasts formed myotubes. Cells were used for uptake assay at day 10. Hep3B cells were grown in MEM-eagle (Gibco# 11960-044) with 10% FBS, 1×NEAA, 1× sodium pyruvate and 1× penicillin/streptomycin.
Before the uptake assay, the cells were washed once with PBS and once with DMEM minus glucose media (Gibco#11966-025), then the cells were starved in 1.5 ml of DMEM minus glucose media for 1 hour at 37° C. […]

[6] = system: normal fibroblast cells; assay: Alpha-galactosidase uptake by normal fibroblasts in vitro; format: cell-based, human; conditions: separate experiment, FIG. 9
Description: Before the uptake assay, the cells were washed once with PBS and once with DMEM minus glucose media (Gibco#11966-025), then the cells were starved in 1.5 ml of DMEM minus glucose media for 1 hour at 37° C. […] The lysates were assay for alpha-galactosidase activity with 4-MU-galactoside (Sigma #M-7633) as substrate and normalized to protein content.
Human skin fibroblasts (ATCC# CRL-1502) were grown at 37° C. under 5% CO2 in MEM with Earle's balanced salts, 2× essential and non-essential amino acids (NEAA) (Gibco# 11130-051, 11140-050) and vitamin (Gibco# 1120-052), 20% fetal bovine serum (Gibco# 16000-044, not heat-inactivated) plus 1× penicillin/streptomycin. The pH of the media was adjusted to approximately 7 with sodium bicarbonate (Gibco #25080-094).

[7] = system: Fabry fibroblast cells; assay: Alpha-galactosidase uptake by Fabry fibroblasts in vitro; format: cell-based; conditions: separate experiment, FIG. 9
Description: Before the uptake assay, the cells were washed once with PBS and once with DMEM minus glucose media (Gibco#11966-025), then the cells were starved in 1.5 ml of DMEM minus glucose media for 1 hour at 37° C. After starvation, the cells were switched to uptake media (DMEM with or without glucose, plus 4 mg/ml BSA, 2.5 mM beta-glycerophosphate (Sigma #G-6376), 25 mM Hepes, pH 6.8. Insulin (Calbiochem, #40769), M6P (Sigma # M-6876) and 2 μg/ml recombinant human alpha-galactosidase (as a model protein because of its better M6P phosphylation) were added as indicated in FIGS. 7A and 7B. Uptake of enzyme was continued for 4 hours at 37° C. After uptake, the cells were washed twice with PBS containing 1 mM M6P and once with PBS, then lysed in alpha-galactosidase assay buffer (50 mM sodium citrate, […]) plus 1% Triton X-100 and protease inhibitors. The lysates were assay for alpha-galactosidase activity with 4-MU-galactoside (Sigma #M-7633) as substrate and normalized to protein content.
Human skin fibroblasts (ATCC# CRL-1502) were grown at 37° C. under 5% CO2 in MEM with Earle's balanced salts, 2× essential and non-essential amino acids (NEAA) (Gibco# 11130-051, 11140-050) and vitamin (Gibco# 1120-052), 20% fetal bovine serum (Gibco# 16000-044, not heat-inactivated) plus 1× penicillin/streptomycin. […]

Row | Compound | increase of CEREZYME enzyme uptake by rat alveolar macrophage cells [1] | effect on CEREZYME enzyme uptake by hepatocytes [2] | increase of total glucocerebrosidase activity in spleen [3] | increase in CEREZYME enzyme uptake by spleen macrophages after dosage correction ([4]; CEREZYME 7 U/kg and 72 U/kg) | absolute enzyme activity in spleen macrophages, % of control without dexamethasone ([4]; CEREZYME 18 U/kg) | absolute CEREZYME enzyme activity in spleen macrophages, % of control sample ([4]; CEREZYME 72 U/kg) | increase in CEREZYME enzyme uptake by spleen macrophages after normalizing the dose contribution ([4]; dexamethasone 50 μg/rat, CEREZYME 18 U/kg) | alpha-galactosidase uptake by Hep 3B cells increased to [5] | alpha-galactosidase uptake by normal fibroblast cells increased to [6] | alpha-galactosidase uptake by Fabry fibroblast cells increased to [7]
1 | C[C@@H]1C[C@H]2[C@@H]3CCC4=CC(=O)C=C[C@]4(C)[C@@]3(F)[C@@H](O)C[C@]2(C)[C@@]1(O)C(=O)CO [dexamethasone] | 250-350% | did not significantly enhance | 4 fold | about 3 fold | ~220% | ~250% | at least 3 fold | – | – | –
2 | insulin: Insulin (Calbiochem, #40769) | – | – | – | – | – | – | – | about 200% | about 200% | about 200%

— US7658916B2, “Methods of enhancing lysosomal storage disease therapy by modulation of cell surface receptor density” (Genzyme Corporation, priority 2002, dated 2010)
